Patent US20030224525A1, “Enhanced photophysics of conjugated polymers” (The University of Chicago, priority 2002, published 2003)

Assay: Particle size by dynamic light scattering
Type: physicochemical
Details: in solution; complex 1:1 mole ratio, filtered with 100 nanometer filter
Protocol: More striking results come from fluorescence microscopy of the polymer-surfactant complex (1:1 mole ratio). After filtration with a 100 nanometer filter, the 5×10^−5 M complex solution is perfectly clear and suitable for spectroscopic studies. However, when spread on a glass substrate (microscope slide) with a cover glass, incubated for 10 minutes at room temperature and observed under a 100×oil immerse objective, the polymer-surfactant complex consists of bright, uniform and well-defined nano-sized particles (FIG. 2A). […] The particle size was measured using dynamic light scattering methods. […] As a comparison, the measured particle size in pure MPS-PPV solution is about 9 nm with a broad gaussian distribution; while pure DOTAP solution contains particles ( presumably lipid bilayer assemblies) with a mean diameter of 57 nm, consistent with the literature value. The sizes of the polymer and complex particles are consistent with the results from fluorescence correlation spectroscopic experiments.
Since the spectra in FIG. 1 indicated the possibility of a second complex component in the polymer-surfactant mixture, the solution emission was examined using a shorter excitation wavelength (400 nm). As shown in FIG. 3 (inset A), the solution does container a very low concentration of species emitting at 465 nm. […]

**Q.** For `CCCCCCCC/C=C\CCCCCCCC(=O)OCC(C[N+](C)(C)C)OC(=O)CCCCCCC/C=C\CCCCCCCC.[Cl-]` (stereo not shown) [DOTAP, N-[1-(2,3-Dioleoyloxy)propyl]-N,N,N,-trimethylammonium chloride], which average particle size is on record?
**A.** 57 nm
